Test results reported in patent publication US12162867B2, “Inhibitors of RNA helicase DHX9 and uses thereof” (ACCENT THERAPEUTICS, INC., priority 2022, dated 2024).
pEC50, pIC50: −log10 of the molar value. Where two headings read alike, the source gives them in different places.

How the values were obtained:
Assay type in all cases: cell-based
NCI-H747 cells = test: DHX9 cellular proliferation assay (CellTiter-Glo), NCI-H747 (CRC-MSS); conditions: Homo sapiens
[1] = system: circBRIP1 in HCT116 cells; test: DHX9 circBRIP1 cellular target engagement SYBR Green assay (qPCR); conditions: Homo sapiens, HCT-116, circBRIP1, HCT116 cells, read-out: DHX9 Cellular Target Engagement EC50
LS411N cells = test: DHX9 cellular proliferation assay (CellTiter-Glo), LS411N (CRC-MSI); conditions: Homo sapiens, LS-411N, read-out: LS411N (CRC-MSI-H) Antiproliferative IC50
[2] = NCI-H747, NCI-H747, CRC-MSS, performed at Pharmaron, read-out: H747 (CRC-MSS) Antiproliferative IC50
[3] = LS411N, CRC-MSI-H, performed at Pharmaron
[4] = NCI-H747, NCI-H747, performed at Pharmaron, read-out: H747 (CRC-MSS) Antiproliferative IC50
[5] = NCI-H747, read-out: H747 (CRC-MSS) Antiproliferative IC50

| Compound | pIC50 (NCI-H747 cells; [2]) | pEC50 ([1]; SyBr assay (marked ^+)) | pIC50 (NCI-H747 cells; [4]) | pEC50 ([1]; ^+ SyBr assay was used) | pIC50 (LS411N cells; [3]) | pIC50 (LS411N cells; LS411N, performed at Pharmaron) | pIC50 (NCI-H747 cells; [5]) | pIC50 (LS411N cells) |
| --- | --- | --- | --- | --- | --- | --- | --- | --- |
| CS(=O)(=O)Nc1cc(Cl)cc(NC(=O)c2cnn(-c3ncc(F)cc3OCc3cccc(F)c3)c2)c1 [Example 202] | 5.07 | 6.99 | – | – | 6.95 | – | – | – |
| Cc1cccnc1-c1cc(C(=O)Nc2cc(Br)cc(NS(C)(=O)=O)c2)cn1C [Example 84, N-(3-bromo-5-(methylsulfonamido)phenyl)-1-methyl-5-(3-methylpyridin-2-yl)-1H-pyrrole-3-carboxamide] | – | 6.71 | – | – | – | – | < 5.00 | 6.41 |
| COc1cnc(-n2cc(C(=O)Nc3cc(Cl)cc(NS(C)(=O)=O)c3)cc2C)nc1 [Example 441] | – | – | < 5.00 | 6.91 | – | 6.89 | – | – |
| Cc1cc(C(=O)Nc2cc(Cl)cc(NS(C)(=O)=O)c2)cn1-c1ccc(N2CCN(C)C(=O)C2)cn1 [Example 94] | < 5.00 | 6.53 | – | – | 5.49 | – | – | – |
| CS(=O)(=O)Nc1cc(Cl)cc(NC(=O)c2cnn(-c3ccc(N4CC5CCC(C4)O5)cn3)c2)c1 [Example 191] | < 5.00 | 6.36 | – | – | < 5.00 | – | – | – |
| Cc1cc(C(=O)Nc2cc(Cl)cc(NS(C)(=O)=O)c2)cn1-c1ccc(N2CCN(C(=O)N(C)C)CC2)cn1 [Example 284] | < 5.00 | 6.99 | – | – | 6.79 | – | – | – |
| CS(=O)(=O)Nc1cc(Br)cc(NC(=O)c2cnn(-c3ccccn3)c2)c1 [Example 36, N-(3-bromo-5-(methylsulfonamido)phenyl)-1-(pyridin-2-yl)-1H-pyrazole-4-carboxamide] | – | 6.50 | – | – | – | – | < 5.00 | 5.96 |
| CS(=O)(=O)Nc1cc(F)cc(NC(=O)c2cc(-c3ncccc3OCc3ccccc3)cs2)c1 [Example 214] | 5.15 | 6.97 | – | – | 6.69 | – | – | – |
| CCOc1cnc(-n2cc(C(=O)Nc3cc(Cl)cc(NS(C)(=O)=O)c3)cc2C)nc1 [Example 208] | < 5.00 | 6.90 | – | – | 6.66 | – | – | – |
| Cc1ccc(OCc2cccc(F)c2)c(-n2cc(C(=O)Nc3cc(Cl)cc(NS(C)(=O)=O)c3)cn2)n1 [Example 204] | < 5.00 | 7.27 | – | – | 7.26 | – | – | – |
| CS(=O)(=O)Nc1cc(Br)cc(NC(=O)c2cc(-c3ncccc3OCc3ccccc3)cs2)c1 [Example 32] | < 5.00 | 7.32 | – | – | 7.00 | – | – | – |
| Cc1cccc(O)c1-c1csc(C(=O)Nc2cc(Br)cc(NS(C)(=O)=O)c2)c1 [Example 19] | < 5.00 | 5.68 | – | – | 5.97 | – | – | – |
| Cc1cc(C(=O)Nc2cc(Cl)cc(NS(C)(=O)=O)c2)cn1-c1ccc(N2CCN(C(=O)C(C)C)CC2)cn1 [Example 283] | < 5.00 | 6.88 | – | – | 7.03 | – | – | – |
| Cc1ccc(-n2cc(C(=O)Nc3cc(Br)cc(NS(C)(=O)=O)c3)cn2)nc1 [Example 42] | < 5.00 | 6.51 | – | – | 6.04 | – | – | – |
| CS(=O)(=O)Nc1cc(Cl)cc(NC(=O)c2cnn(-c3ncccc3OCc3cncc(F)c3)c2)c1 [Example 186] | < 5.00 | 6.79 | – | – | 5.61 | – | – | – |
| CS(=O)(=O)Nc1cc(Cl)cc(NC(=O)c2cc(CO)n(-c3ncccc3OCc3cncc(F)c3)c2)c1 [Example 723] | – | – | < 5.00 | 7.13 | – | 6.13 | – | – |

Now from value to molecule, other results behind:

| pIC50 (NCI-H747 cells; [2]) | pEC50 ([1]; SyBr assay (marked ^+)) | pIC50 (NCI-H747 cells; [4]) | pEC50 ([1]; ^+ SyBr assay was used) | Compound | pIC50 (LS411N cells; [3]) | pIC50 (LS411N cells; LS411N, performed at Pharmaron) | pIC50 (NCI-H747 cells; [5]) | pIC50 (LS411N cells) |
| --- | --- | --- | --- | --- | --- | --- | --- | --- |
| < 5.00 | 7.07 | – | – | Cc1sc(C(=O)Nc2cc(Cl)cc(NS(C)(=O)=O)c2)cc1-c1ncc(F)cn1 [Example 336] | 6.84 | – | – | – |
| – | – | 5.04 | 7.62 | Cc1cc(C(=O)Nc2cc(Cl)cc(NS(C)(=O)=O)c2)cn1-c1ccc(N2CC(F)C2)cn1 [Example 395] | – | 6.93 | – | – |
| – | – | < 5.00 | 6.98 | Cc1cc(C(=O)Nc2cc(Cl)cc(NS(C)(=O)=O)c2)cn1-c1ncccc1OCC1CC1 [Example 713] | – | 6.98 | – | – |
| 5.07 | 6.29 | – | – | Cc1cccnc1-c1cc(C(=O)Nc2cc(Cl)cc(NS(C)(=O)=O)c2)cn1CC(F)F [Example 143, N-(3-chloro-5-(methylsulfonamido)phenyl)-1-(2,2-difluoroethyl)-5-(3-methylpyridin-2-yl)-1H-pyrrole-3-carboxamide] | 5.96 | – | – | – |
| 5.07 | 6.97 | – | – | Cc1sc(C(=O)Nc2cc(Cl)cc(NS(C)(=O)=O)c2)cc1-c1ncc(OC(F)F)cn1 [Example 345] | 6.44 | – | – | – |
| < 5.00 | 7.07 | – | – | CS(=O)(=O)Nc1cc(Cl)cc(NC(=O)c2cc(-c3ccccn3)c(C3CC3)s2)c1 [Example 177, N-(3-chloro-5-(methylsulfonamido)phenyl)-5-cyclopropyl-4-(pyridin-2-yl)thiophene-2-carboxamide] | 6.60 | – | – | – |
| < 5.00 | 7.02 | – | – | Cn1cc(C(=O)Nc2cc(Cl)cc(NS(C)(=O)=O)c2)cc1-c1ncc(F)cn1 [Example 171, N-(3-chloro-5-(methylsulfonamido)phenyl)-5-(5-fluoropyrimidin-2-yl)-1-methyl-1H-pyrrole-3-carboxamide] | 6.43 | – | – | – |
| < 5.00 | 7.49 | – | – | CNC(=O)c1sc(C(=O)Nc2cc(Cl)cc(NS(C)(=O)=O)c2)cc1-c1ncccc1OCc1ccccc1 [Example 212] | 6.69 | – | – | – |
| < 5.00 | 7.32 | – | – | CCOc1cnc(-c2csc(C(=O)Nc3cc(Cl)cc(NS(C)(=O)=O)c3)c2)nc1 [Example 342] | 6.88 | – | – | – |
| < 5.00 | 6.54 | – | – | Cc1cccnc1-c1cc(C(=O)Nc2cc(Cl)cc(NS(C)(=O)=O)c2)cn1C [Example 81] | 5.97 | – | – | – |
| 5.42 | 5.72 | – | – | CS(=O)(=O)Nc1cc(Cl)cc(NC(=O)c2cc(-c3ncccc3Nc3ncccn3)cs2)c1 [Example 237] | 6.60 | – | – | – |
| < 5.00 | 7.19 | – | – | Cc1cc(C(=O)Nc2cc(Cl)cc(NS(C)(=O)=O)c2)cn1-c1ccc(N2CC3(COC3)C2)cn1 [Example 276] | 7.21 | – | – | – |
| < 5.00 | 7.15 | – | – | CS(=O)(=O)Nc1cc(Cl)cc(NC(=O)c2cc(-c3ccccn3)c(CO)s2)c1 [Example 163, N-(3-chloro-5-(methylsulfonamido)phenyl)-5-(hydroxymethyl)-4-(pyridin-2-yl)thiophene-2-carboxamide] | 6.22 | – | – | – |
| < 5.00 | 7.01 | – | – | CS(=O)(=O)Nc1cc(Br)cc(NC(=O)c2cc(-c3cnccn3)cs2)c1 [Example 18] | 6.26 | – | – | – |
| – | – | < 5.00 | 7.56 | COCc1ccc(-n2cc(C(=O)Nc3cc(Cl)cc(NS(C)(=O)=O)c3)cc2C)nc1 [Example 447] | – | 6.96 | – | – |
| < 5.00 | 7.30 | – | – | CCS(=O)(=O)Nc1cc(Cl)cc(NC(=O)c2cc(-c3ncccn3)c(C)s2)c1 [Example 27] | 6.93 | – | – | – |
| < 5.00 | 6.48 | – | – | Cc1cc(C(=O)Nc2cc(Cl)cc(NS(C)(=O)=O)c2)cn1-c1ccccc1 [Example 129, N-(3-chloro-5-(methylsulfonamido)phenyl)-5-methyl-1-phenyl-1H-pyrrole-3-carboxamide] | 5.96 | – | – | – |
| – | – | < 5.00 | 7.39 | Cc1cc(C(=O)Nc2cc(Cl)cc(NS(C)(=O)=O)c2)cn1-c1ncc(N2CCC2)cn1 [Example 398] | – | 6.94 | – | – |
| – | – | < 5.00 | 7.04 | CCOc1cnn(-c2cc(C(=O)Nc3cc(Cl)cc(NS(C)(=O)=O)c3)sc2C)c1 [Example 438] | – | 6.29 | – | – |
